Among the test systems are HCT-116 colon; IGROV1 ovarian; SF-539 CNS; HT29 colon; EKVX NSCLC; SK-MEL-28 melanoma; HCC-2998 colon; ACHN renal; KM12 colon; NCI-H23 lung.
Holding throughout (assay): growth of human tumour cells (NCI), 48 h

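Five compound concentrations were applied to cells in 96-well plates for 48 hours; endpoints were derived by simple linear interpolation of the resulting dose-response curve. The concentration for 50% growth inhibition is given as GI50. The concentration for full growth arrest is given as TGI.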 Where only a bound is given, the exact number is not on record here.

In the case of `O=[N+]([O-])c1cccc(C2=NOC3CCCC23)c1` (centres undefined), the TGI in the test on HCT-116 colon, with IGROV1 ovarian, with SF-539 CNS, in the test on HT29 colon, in the test on EKVX NSCLC and with SK-MEL-28 melanoma was over 100 µM throughout. Besides, the TGI in the test with HCC-2998 colon, in the test with ACHN renal, with KM12 colon and in the test with NCI-H23 lung was over 100 µM throughout.

With `Cc1cccc(Cc2cnc(NC(=O)CCCOc3ccc(Cl)cc3)s2)c1`, the GI50 in the test with HCT-116 colon is 3.36 µM; with IGROV1 ovarian, 9.21 µM; with SF-539 CNS, 5.13 µM; in the test on HT29 colon, 3.49 µM; in the test on EKVX NSCLC, 45 µM; in the test on SK-MEL-28 melanoma it was 37.2 µM. Further, the GI50 in the test with HCC-2998 colon was 9.46 µM; in the test on ACHN renal, 3.47 µM; with KM12 colon, 4.53 µM; in the test on NCI-H23 lung, 28 µM. For the same compound, the TGI in the test on HCT-116 colon, in the test on IGROV1 ovarian, with SF-539 CNS, with HT29 colon, in the test on EKVX NSCLC and with SK-MEL-28 melanoma was over 100 µM each time. Moreover, the TGI with HCC-2998 colon, in the test on ACHN renal, in the test on KM12 colon and in the test on NCI-H23 lung was over 100 µM each time.

Regarding `COC(=O)c1ccccc1NCc1cc(O)ccc1O`, the TGI was 35.2 µM with HCT-116 colon; over 63.4 µM in the test with IGROV1 ovarian; 34.9 µM in the test with SF-539 CNS; 44.2 µM in the test on HT29 colon; over 68.1 µM in the test on EKVX NSCLC; 35.4 µM in the test on SK-MEL-28 melanoma. Besides, the TGI with HCC-2998 colon is over 55.7 µM; in the test with ACHN renal, 29.8 µM; with KM12 colon, 53.2 µM; in the test with NCI-H23 lung, over 68.5 µM.

For `COC(=O)/C(=C/c1ccc(OC)cc1)c1cc(OC)c(OC)c(OC)c1`, the TGI was 55.3 µM in the test with HCT-116 colon; over 100 µM in the test on IGROV1 ovarian; 6.96 µM with SF-539 CNS; over 74.9 µM in the test on HT29 colon; over 100 µM in the test on EKVX NSCLC; over 100 µM in the test with SK-MEL-28 melanoma. Also, the TGI with HCC-2998 colon is over 59 µM; with ACHN renal it was over 100 µM; in the test with KM12 colon, 71 µM; with NCI-H23 lung, 26.8 µM.

`ClCc1ccc(Cn2cnc3nc(Cl)nc(Cl)c32)cc1`: the GI50 in the test with HCT-116 colon is 0.235 µM; in the test on IGROV1 ovarian, 1.37 µM; with SF-539 CNS it was 0.593 µM; in the test on HT29 colon it was 0.97 µM; in the test with EKVX NSCLC it was 0.704 µM; in the test on SK-MEL-28 melanoma it was 1.86 µM. The GI50 in the test on HCC-2998 colon is 1.62 µM; in the test with ACHN renal, 0.523 µM; with KM12 colon it was 0.677 µM; in the test on NCI-H23 lung it was 1.84 µM. Further, the TGI was 1.26 µM with HCT-116 colon; 2.72 µM in the test with IGROV1 ovarian; 1.14 µM in the test with SF-539 CNS; 1.88 µM in the test on EKVX NSCLC; 4 µM in the test on SK-MEL-28 melanoma; 3.18 µM in the test with HCC-2998 colon. For the same compound, the TGI in the test with ACHN renal stood at 0.953 µM; in the test with KM12 colon, 1.48 µM; with NCI-H23 lung, 3.65 µM.

As for `CC(C)(CCc1nc2ccccc2[nH]1)C(=O)O`, the TGI in the test with HCT-116 colon, in the test with IGROV1 ovarian, in the test with SF-539 CNS, with HT29 colon, in the test with EKVX NSCLC and in the test on SK-MEL-28 melanoma was over 100 µM throughout. The TGI with HCC-2998 colon, in the test with ACHN renal, in the test with KM12 colon and in the test with NCI-H23 lung was over 100 µM each time.

Regarding `C=CCCC1(CCP(=O)(c2ccccc2)c2ccccc2)OCCO1`, the TGI with HCT-116 colon, in the test on IGROV1 ovarian, in the test with SF-539 CNS, with HT29 colon, with EKVX NSCLC and with SK-MEL-28 melanoma was over 100 µM in each case. The TGI in the test with HCC-2998 colon, in the test with ACHN renal, in the test on KM12 colon and in the test on NCI-H23 lung was over 100 µM each time.

Turning to `O=[N+]([O-])C1(CO)COC(CCc2ccccc2)OC1` (centres undefined), the TGI with HCT-116 colon, in the test on IGROV1 ovarian, in the test with SF-539 CNS, in the test with HT29 colon, in the test with EKVX NSCLC and in the test with SK-MEL-28 melanoma was over 100 µM throughout. For the same compound, the TGI in the test with HCC-2998 colon, with ACHN renal, in the test on KM12 colon and with NCI-H23 lung was over 100 µM throughout.

Regarding `COc1ccc(-c2ccc(/C=N/n3c(COc4ccc(Cl)c(C)c4)nn(CN4CCOCC4)c3=S)o2)c([N+](=O)[O-])c1`, the GI50 is 17.6 µM with HCT-116 colon; 40.3 µM in the test with IGROV1 ovarian; 22 µM in the test with SF-539 CNS; 21.6 µM in the test with HT29 colon; 26.4 µM in the test with EKVX NSCLC; 20.5 µM in the test on SK-MEL-28 melanoma. Moreover, the GI50 in the test on HCC-2998 colon was 16.5 µM; in the test with ACHN renal, 39.1 µM; in the test with KM12 colon, 29.1 µM; in the test on NCI-H23 lung, 20.2 µM. Further, the TGI in the test on HCT-116 colon is 34.3 µM; in the test on IGROV1 ovarian, over 100 µM; in the test with SF-539 CNS it was 53.9 µM; with HT29 colon, 51.2 µM; in the test with EKVX NSCLC, over 100 µM; in the test with SK-MEL-28 melanoma, 53.7 µM. Also, the TGI in the test on HCC-2998 colon was 32.5 µM; in the test on ACHN renal, over 100 µM; in the test with KM12 colon it was over 100 µM; in the test on NCI-H23 lung, 51.6 µM.

Consider `CC(C)C12CCC3(CCC4C(C)(C(=O)O)CCCC4(C)C3C1)C(CN)C2` (centres undefined), for which the TGI in the test with HCT-116 colon is 34.2 µM; in the test with IGROV1 ovarian, over 100 µM; in the test with SF-539 CNS, 78.9 µM; in the test with HT29 colon, 47.2 µM; in the test on EKVX NSCLC it was 62 µM; in the test with SK-MEL-28 melanoma it was over 100 µM. In addition, the TGI was 36.2 µM in the test on HCC-2998 colon, over 100 µM in the test on ACHN renal, over 100 µM with KM12 colon and 72.1 µM in the test on NCI-H23 lung.

In the case of `NC1CC(n2ccc(=O)[nH]c2=O)OC1C(O)CO` (centres undefined), the TGI in the test on HCT-116 colon, in the test on IGROV1 ovarian, in the test on SF-539 CNS, with HT29 colon, in the test on EKVX NSCLC and in the test with SK-MEL-28 melanoma was over 100 µM each time. For the same compound, the TGI with HCC-2998 colon, in the test with ACHN renal, in the test with KM12 colon and in the test with NCI-H23 lung was over 100 µM in each case.

(Values after PubChem BioAssay (NCI).)
